# PubChem BioAssay (NCI)
#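 Method: 48-hour compound exposure of cells in 96-well plates, five concentrations, linear interpolation of endpoints. GI50: concentration for 50% inhibition of growth. TGI is the concentration that stops growth completely.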
# How the values were obtained:
# Test in all cases: inhibition of tumour cell growth, NCI panel, 48 h
# NCI/ADR-RES ovarian = tested on: NCI/ADR-RES ovarian
# SNB-75 CNS = tested on: SNB-75 CNS
# K-562 leukemia = tested on: K-562 leukemia
# SNB-19 CNS = tested on: SNB-19 CNS
# HCC-2998 colon = tested on: HCC-2998 colon
# UO-31 renal = tested on: UO-31 renal
# SK-MEL-5 melanoma = tested on: SK-MEL-5 melanoma
# HOP-62 NSCLC = tested on: HOP-62 NSCLC
# NCI-H522 lung = tested on: NCI-H522 lung
# SF-268 CNS = tested on: SF-268 CNS
# BT-549 breast = tested on: BT-549 breast
# HL-60(TB) leukemia = tested on: HL-60(TB) leukemia
# HOP-92 NSCLC = tested on: HOP-92 NSCLC
# PC-3 prostate = tested on: PC-3 prostate
# SN12C renal = tested on: SN12C renal
# MDA-MB-231 breast = tested on: MDA-MB-231 breast
# RPMI-8226 leukemia = tested on: RPMI-8226 leukemia
# MALME-3M melanoma = tested on: MALME-3M melanoma
# RXF 393 renal = tested on: RXF 393 renal
# NCI-H460 lung = tested on: NCI-H460 lung
# HT29 colon = tested on: HT29 colon
# 786-0 renal = tested on: 786-0 renal
# MOLT-4 leukemia = tested on: MOLT-4 leukemia
# CAKI-1 renal = tested on: CAKI-1 renal
# A549 NSCLC = tested on: A549 NSCLC
# NCI-H226 lung = tested on: NCI-H226 lung
# OVCAR-3 ovarian = tested on: OVCAR-3 ovarian
# IGROV1 ovarian = tested on: IGROV1 ovarian
# DU-145 prostate = tested on: DU-145 prostate
# TK-10 renal = tested on: TK-10 renal
# UACC-62 melanoma = tested on: UACC-62 melanoma
# OVCAR-5 ovarian = tested on: OVCAR-5 ovarian
# NCI-H23 lung = tested on: NCI-H23 lung
# MDA-MB-435 = tested on: MDA-MB-435
# SK-MEL-2 melanoma = tested on: SK-MEL-2 melanoma
# U251 CNS = tested on: U251 CNS
# COLO 205 colon = tested on: COLO 205 colon
# HCT-15 colon = tested on: HCT-15 colon
# EKVX NSCLC = tested on: EKVX NSCLC
# ACHN renal = tested on: ACHN renal
# SW-620 colon = tested on: SW-620 colon
# MDA-MB-468 breast = tested on: MDA-MB-468 breast
# UACC-257 melanoma = tested on: UACC-257 melanoma
# KM12 colon = tested on: KM12 colon
# SF-539 CNS = tested on: SF-539 CNS
# MCF7 breast = tested on: MCF7 breast
# SK-MEL-28 melanoma = tested on: SK-MEL-28 melanoma
# M14 melanoma = tested on: M14 melanoma
# T-47D breast = tested on: T-47D breast
# OVCAR-8 ovarian = tested on: OVCAR-8 ovarian
# A498 renal = tested on: A498 renal
# SR leukemia = tested on: SR leukemia
# SK-OV-3 ovarian = tested on: SK-OV-3 ovarian
# HS 578T breast = tested on: HS 578T breast
# OVCAR-4 ovarian = tested on: OVCAR-4 ovarian
# SF-295 CNS = tested on: SF-295 CNS
structure (smiles),measurement,setting,value
COc1ccc(-c2nc(Nc3ccccc3S(N)(=O)=O)c3ccccc3n2)cc1,GI50,NCI/ADR-RES ovarian,3.19 µM
same,TGI,NCI/ADR-RES ovarian,16.6 µM
same,GI50,SNB-75 CNS,2.32 µM
same,TGI,SNB-75 CNS,> 100 µM
same,GI50,K-562 leukemia,4.49 µM
same,TGI,K-562 leukemia,> 100 µM
same,GI50,SNB-19 CNS,18 µM
same,TGI,SNB-19 CNS,63.3 µM
same,GI50,HCC-2998 colon,3.46 µM
same,TGI,HCC-2998 colon,13.7 µM
same,GI50,UO-31 renal,9.42 µM
same,TGI,UO-31 renal,33.4 µM
same,GI50,SK-MEL-5 melanoma,2.76 µM
same,TGI,SK-MEL-5 melanoma,10.4 µM
same,GI50,HOP-62 NSCLC,12.8 µM
same,TGI,HOP-62 NSCLC,45.4 µM
same,GI50,NCI-H522 lung,4.19 µM
same,TGI,NCI-H522 lung,25.7 µM
same,GI50,SF-268 CNS,3.62 µM
same,TGI,SF-268 CNS,32.1 µM
same,GI50,BT-549 breast,22.5 µM
same,TGI,BT-549 breast,> 100 µM
same,GI50,HL-60(TB) leukemia,> 100 µM
same,TGI,HL-60(TB) leukemia,> 100 µM
same,GI50,HOP-92 NSCLC,7.68 µM
same,TGI,HOP-92 NSCLC,71.3 µM
same,GI50,PC-3 prostate,7.21 µM
same,TGI,PC-3 prostate,> 100 µM
same,GI50,SN12C renal,> 100 µM
same,TGI,SN12C renal,> 100 µM
same,GI50,MDA-MB-231 breast,2.14 µM
same,TGI,MDA-MB-231 breast,5.77 µM
same,GI50,RPMI-8226 leukemia,4.35 µM
same,TGI,RPMI-8226 leukemia,> 100 µM
same,GI50,MALME-3M melanoma,5.24 µM
same,TGI,MALME-3M melanoma,50.4 µM
same,GI50,RXF 393 renal,1.91 µM
same,TGI,RXF 393 renal,7.27 µM
same,GI50,NCI-H460 lung,2.79 µM
same,TGI,NCI-H460 lung,8.9 µM
same,GI50,HT29 colon,4 µM
same,TGI,HT29 colon,32.2 µM
same,GI50,786-0 renal,3.75 µM
same,TGI,786-0 renal,14.6 µM
same,GI50,MOLT-4 leukemia,4.41 µM
same,TGI,MOLT-4 leukemia,> 100 µM
same,GI50,CAKI-1 renal,3.93 µM
same,TGI,CAKI-1 renal,42.5 µM
same,GI50,A549 NSCLC,3.7 µM
same,TGI,A549 NSCLC,30.9 µM
same,GI50,NCI-H226 lung,2.04 µM
same,TGI,NCI-H226 lung,7.13 µM
same,GI50,OVCAR-3 ovarian,14.3 µM
same,TGI,OVCAR-3 ovarian,> 100 µM
same,GI50,IGROV1 ovarian,99.2 µM
same,TGI,IGROV1 ovarian,> 100 µM
same,GI50,DU-145 prostate,4.67 µM
same,TGI,DU-145 prostate,32.9 µM
same,GI50,TK-10 renal,21.7 µM
same,TGI,TK-10 renal,81.3 µM
same,GI50,UACC-62 melanoma,8.84 µM
same,TGI,UACC-62 melanoma,> 100 µM
same,GI50,OVCAR-5 ovarian,46.1 µM
same,TGI,OVCAR-5 ovarian,> 100 µM
same,GI50,NCI-H23 lung,2.4 µM
same,TGI,NCI-H23 lung,7.91 µM
same,GI50,MDA-MB-435,4.36 µM
same,TGI,MDA-MB-435,> 100 µM
same,GI50,SK-MEL-2 melanoma,> 100 µM
same,TGI,SK-MEL-2 melanoma,> 100 µM
same,GI50,U251 CNS,3.31 µM
same,TGI,U251 CNS,14.2 µM
same,GI50,COLO 205 colon,5.29 µM
same,TGI,COLO 205 colon,> 100 µM
same,GI50,HCT-15 colon,3.74 µM
same,TGI,HCT-15 colon,13.4 µM
same,GI50,EKVX NSCLC,5.35 µM
same,TGI,EKVX NSCLC,28.4 µM
same,GI50,ACHN renal,6.39 µM
same,TGI,ACHN renal,28.3 µM
same,GI50,SW-620 colon,4.19 µM
same,TGI,SW-620 colon,97.9 µM
same,GI50,MDA-MB-468 breast,2.55 µM
same,TGI,MDA-MB-468 breast,8.01 µM
same,GI50,UACC-257 melanoma,> 100 µM
same,TGI,UACC-257 melanoma,> 100 µM
same,GI50,KM12 colon,4.27 µM
same,TGI,KM12 colon,> 100 µM
same,GI50,SF-539 CNS,3.05 µM
same,TGI,SF-539 CNS,12.2 µM
same,GI50,MCF7 breast,2.55 µM
same,TGI,MCF7 breast,15.1 µM
same,GI50,SK-MEL-28 melanoma,7.31 µM
same,TGI,SK-MEL-28 melanoma,> 100 µM
same,GI50,M14 melanoma,6.06 µM
same,TGI,M14 melanoma,> 100 µM
same,GI50,T-47D breast,3.47 µM
same,TGI,T-47D breast,> 100 µM
same,GI50,OVCAR-8 ovarian,6.41 µM
same,TGI,OVCAR-8 ovarian,> 100 µM
same,GI50,A498 renal,10.5 µM
same,TGI,A498 renal,57.6 µM
same,GI50,SR leukemia,6.28 µM
same,TGI,SR leukemia,> 100 µM
same,GI50,SK-OV-3 ovarian,15.7 µM
same,TGI,SK-OV-3 ovarian,71.3 µM
same,GI50,HS 578T breast,4.28 µM
same,TGI,HS 578T breast,> 100 µM
same,GI50,OVCAR-4 ovarian,28.9 µM
same,TGI,OVCAR-4 ovarian,> 100 µM
same,GI50,SF-295 CNS,3 µM
same,TGI,SF-295 CNS,13.2 µM
